# In patent EP2557075A1, “New triazene compounds for treating cancer” (Trin Therapeutics GmbH, priority 2011, dated 2013):
# Entries after “also recorded” stand apart in the source; their conditions may differ. Where two headings read alike, the source gives them in different places.
# Legend:
# [1] = tested on: periphere Blutzellen (PBC); assay: Cell damage (apoptosis rate, CaspACE assay, flow cytometry) in peripheral blood cells (Experiment 5); type: cell-based
# Text: Um die therapeutische Breite der neuen Substanzen abschätzen zu können, wurden periphere Blutzellen (PBC) und hämatologische Zellen (Nalm-6; CEM und U-937) für 24 Stunden mit unterschiedlichen Dosen verschiedener Triazenverbindungen bzw. Doxorubicin als positive Kontrolle für die hämatologischen Zelllinien inkubiert. Das Maß der Zellschädigung (Apoptoserate) wurde mittels CaspACE™ Assay (am Durchflusszytometer) bestimmt.
# Verschiedene Triazene wie erfindungsgemäße Verbindungen nach Beispiel 1, TMZ sowie Verbindungen nach Präparat 2 und 5 (entsprechend Verbindungen nach Präparat 2 und Beispiel 2a jeweils der WO 2009/004060) wurden in DMSO bzw. Wasser entsprechend den Angaben in Abbildung 22 gelöst.
# Periphäre Blutzellen (PBC) werden jeweils mit der IC50 für die MDA-MB231 gemäß Experiment 3 der entsprechenden Substanzen inkubiert. Es wird gezeigt, dass die erfindungsgemäße Verbindung nach Beispiel 1 nicht mehr DNA-Schädigungen in den PBC erzeugt als eine Negativkontrolle, […]
# Mammakarzinome = assay: Benzidine-induced mammary carcinoma in female rats (Experiment 6); type: in vivo, Ratten; conditions: s.c. or peroral, observation to day 30, percent median vs. start of treatment
# Procedure: Die Mammakarzinome werden durch subkutane Injektionen von in physiologischer Kochsalz-Lösung suspendiertem Benzidin an weiblichen Ratten induziert. Je nach Art des Rattenstammes sind dazu unterschiedlich hohe Gesamtdosen und verschieden lange Induktionszeiten erforderlich. Bei zwei untersuchten Wistar-Stämmen (Züchter: Spiegel bzw. Winkelmann) erscheinen die Tumoren nach einer Induktionszeit von 150-330 Tagen und einer Gesamtdosis von 1000 bis 1225mg/kg Benzidin subkutan. Bei zwei verschiedenen Sprague-Dawley-Stämmen (Züchter: Mus Rattus AG bzw. Winkelmann) genügt schon eine einzige Benzidin-Injektion von 150mg/kg s.c., um nach 60-180 Tagen die Mammakarzinome entstehen zu lassen. Die Mammakarzinome entwickeln sich fast immer multipel. Acht oder mehr Tumoren pro Tier sind keine Seltenheit. Die Tumoren wachsen ziemlich schnell und führen etwa 30 bis 1 20 Tage nach Tastbarwerden zum Tode der Ratten. Nach 30 Tagen ist eine Tumorgröße von 6g zu erwarten (Figur 1 aus DE 01 7931 15).
# Die Vergleichssubstanzen wurden für 30 Tage täglich s.c, oder peroral in Dosierungen zwischen 50-200mg/kg verabreicht. Die Verbindung nach Beispiel 1 wurde s.c. über die ersten 7 Tage in Dosierungen zwischen 20 und 100mg/kg, so dann in Dosierungen von 200 bis 1000mg/kg (in Stufen von 100mg/kg) für weitere 10 Tage appliziert. Bis zum Tag 30 erfolgte keine weitere Behandlung. […]
# HL-60 = assay: Cell cycle analysis by flow cytometry in HL-60 (Experiment 9); type: cell-based
# Text: (§1) Die Progression durch den Zellzyklus ist charakterisiert durch die mitotische Teilung (M-Phase) und der sich anschließenden Interphase, Die Interphase gliedert sich wiederum in die G1 -, S- und G2-Phase, In der G1-Phase beginnt die Zelle zu wachsen und es liegt ein vollständiger Chromosomensatz vor. In der S-Phase erfolgt die Replikation der DNA, wodurch an ihrem Ende der zweifache Chromosomensatz vorliegt. In der G2-Phase bereitet sich die Zelle auf die mitotische Teilung vor, an dessen Ende wieder der einfache Chromosomensatz vorhanden ist. Zusätzlich zu diesen Phasen kann eine sog. sub-G1-Phase vorliegen. Diese ist charakterisiert durch fragmentierte, apoptotische Zellen, die durch degradierte DNA charakterisiert ist. In welchem Stadium sich die Zelle befindet bzw. arretiert sein kann, lässt sich mittels Durchflusszytometrie bestimmen (Brockhoff et al. 2007; Lenz et al. 2007).
# (§2) Zellkulturen von MDA-MB231 bzw. HL-60 wurden mit der IC50 (MDA-MB231) bzw. IC90 (HL-60) der beiden Test-Substanzen für bis zu 72 Stunden inkubiert und auf die Zellzyklusentwicklung hin untersucht.
# CEM = assay: Growth inhibition (IC50) in leukaemic CEM cells (Experiment 7); type: cell-based; conditions: Homo sapiens, CCRF-CEM, 24 Stunden
# Text: Hämatologische Zellen (CEM, HL-60) wurden für 24 Stunden mit unterschiedlichen Dosen verschiedener Triazenverbindungen inkubiert, um die IC50 zu bestimmen.
# MCF-7-Zellen = assay: Intracellular metabolisation of triazenes in MCF-7 cell culture (Experiment 1); type: in vitro ADME; conditions: MCF-7, 100nmol/ml, 100% FCS
# Procedure: Es wird gezeigt, dass Verbindungen nach Beispiel 1 schneller und in größerer Menge intrazellulär metabolisiert werden als die als Vergleichssubstanzen eingesetzten Verbindungen nach Präparat 2 und 5 (entsprechend Verbindungen nach Präparat 2 und Beispiel 2a jeweils der WO 2009/004060).
# Die getesteten Verbindungen wurden wie folgt gelöst: • Erfindungsgemäße Verbindung: • Beispiel 1 : in 20 mg/ml DMSO
# Vergleichssubstanzen: • Präparat 2: in 50mg/ml DMSO, • Präparat 5: in 50mg/ml Wasser.
# Alle drei Substanzen wurden äquimolar in einer Dosis von 100nmol/ml auf 1 x 10^7 HepG2 bzw. MCF-7-Zellen gegeben. Als Zellkulturmedium wurde 100% fötales Kälberserum (FCS) verwendet. Für den Versuch wurde der Gehalt aus Ausgangsprodukt und Metaboliten im Zellüberstand nach 1, 3 und 6 (HepG2) bzw. 1,3 und 20 Stunden (MCF-7) Inkubationszeit ermittelt. Alle drei Substanzen zeigten in Kontrollversuchen mit 100% FCS nach 40 Stunden metabolische Stabilität.
# MDA-MB231 = assay: Cell cycle analysis by flow cytometry in MDA-MB231 (Experiment 9); type: cell-based; conditions: MDA-MB231, incubated with IC50, nach 10 bzw. 24 Stunden
# Text: as §1, §2
# [2] = tested on: MCF-7, MB-231, HepG2, HCT8, DU-145; assay: IC50 of triazenes in various tumour cell lines (Experiment 3); type: cell-based
# Text: Die nachfolgenden Experimente 3 und 4 zeigen, dass die erfindungsgemäßen neuen Triazenverbindungen eine vergleichbare Anti-Tumorwirkung (IC50) in zahlreichen Krebszelllinien wie der HepG2 (Leber), HCT8 (Darm), DU-145 (Prostata), MCF-7 und MDA-MB-231 (Brust) und MiaPaca-2 (Bauchspeicheldrüse) bei bis zu 100fach niedrigeren Konzentrationen zeigen als vergleichbare Triazene wie DTIC, TMZ oder Substanzen wie sie in der WO 2009/004060 und der DE 1 7931 1 5 beschrieben sind.
# Verschiedene Triazene wie erfindungsgemäße Verbindungen nach Beispiel 1, DTIC, TMZ sowie Verbindungen nach Präparat 2 und 5 (entsprechend Verbindungen nach Präparat 2 und Beispiel 2a jeweils der WO 2009/004060) sowie Verbindungen nach Beispiel 33 der DE1793115 wurden in DMSO bzw. Wasser gelöst.
smiles,measurement,setting,value
CN(C)N=Nc1ccc(C(=O)c2ccc(O)cc2)cc1 [Beispiel 1],Zellschädigung (Apoptoserate) vs. Negativkontrolle,"[1]; PBC, 24 stündige Inkubation",nicht mehr geschädigt als durch eine Negativkontrolle
same,% Zellen in Apoptose,"[1]; Versuch 1 Lymphozyten, 24 Stunden incubation at the IC50 for MDA-MB231","8,120%"
same,Entwicklung der Tumorgewichte,Mammakarzinome,zu jedem Beobachtungszeitpunkt langsamer als unter einer Therapie mit den verwendeten Vergleichssubstanzen
same,Zellen in der G1 Phase,"HL-60; HL-60, IC90, nach 24 Stunden",< 2%
same,eingesetzte Zellen tot,"HL-60; HL-60, IC90, nach 24 Stunden",~40%
same,Zellzyklus,"HL-60; HL-60, incubated with IC90, nach 12 bzw. 24 Stunden",ausgeprägten G2 Arrest
same,IC50,"CEM; mean of Exp. 1-4, read-out: IC50 Mittelwert",22.8 µM
same,IC50,CEM; read-out: IC50 Exp. 1,23.4 µM
same,IC50,CEM; read-out: IC50 Exp. 2,29.7 µM
same,IC50,CEM; read-out: IC50 Exp. 3,23.8 µM
same,IC50,CEM; read-out: IC50 Exp. 4,14.1 µM
same,metabolisiert,MCF-7-Zellen; innerhalb von 1 Stunde,mehr als der Hälfte
same,metabolisiert,MCF-7-Zellen; nach 3 Stunden,vollständig metabolisiert
same,Zellzyklus,MDA-MB231,ausgeprägten G2 Arrest nach 10 bzw. 24 Stunden und massivem Zelltod (SubG1)
same,antitumorale Aktivität (IC50) compared with other triazenes,[2],deutlich wirksamer; also recorded: höhere antitumorale Aktivität
